Experimental data reported in US10787435B2, “ASK1 inhibitor and preparation method and use thereof” (FUJIAN COSUNTER PHARMACEUTICAL CO., LTD., priority 2017, dated 2020).

Legend:
ASK1/MAP3K5 = ASK1/MAP3K5 (Homo sapiens (Human), UniProt Q99683); experiment: Evaluation of in vitro enzyme activity (33P-ATP radiometric kinase assay, MBP substrate); assay type: biochemical; settings: recombinant human full length GST-tagged ASK1 20 nM, MBP 20 μM
Experimental: Example 1: Evaluation of In Vitro Enzyme Activity
Base Reaction Buffer: 20 mM Hepes (pH 7.5), 10 mM MgCl2, 1 mM EGTA, 0.02% Brij35, 0.02 mg/ml BSA, 0.1 mM Na3VO4, 2 mM DTT, 1% DMSO
The test compound was formulated into a 10 mM stock solution in DMSO, which was diluted into 10 concentrations in 3-fold degression, and placed in a 384-well plate (Cyclic Olefin Copolymer LDV Echo®).
Kinase Name: ASK1/MAP3K5 (Invitrogen, Carlsbad, Calif.)
Type: Recombinant Human Full Length Protein, GST-tagged
Final concentration of the enzyme: 20 nM
Substrate: Myelin basic protein, MBP (Active Motif, Carlsbad, Calif.)
Final concentration of the substrate: 20 μM
1. The substrate was dissolved in a freshly prepared base reaction buffer.
2. A desired coenzyme was added to the above substrate solution.
3. The kinase was added to the substrate solution and mixed slowly.
4. The solution of the test compound in DMSO was added to the kinase reaction solution and incubated at room temperature for 20 minutes.
5. ^33P-ATP (specific activity of 10 μCi/μl) was added to the reaction solution to initiate the reaction.
6. Incubated at room temperature for 2 hours.
7. A small portion of the reactants was placed onto a P-81 ion exchange filter paper.
8. The filter paper was washed three times with 0.75% […] to wash off the unbound phosphate, and then the filter paper was dried.
9. The radioactivity remaining on the filter paper was determined.
10. Kinase activity data was expressed as the ratio of the kinase activity remaining in the test sample to the kinase activity in the vehicle (DMSO).
11. IC50 values and curve fits was obtained with Prism (GraphPad software).

[1] = Studies on pharmacokinetic properties in mice (plasma concentration by LC-MS/MS); assay type: in vivo; settings: C57BL/6 male mice, dose not stated; for Exposure: intravenous or oral administration; for bioavailability: mouse, po, intragastric vs tail vein
Experimental: Example 2: Studies on Pharmacokinetic Properties
C57BL/6 male mice were used as subject animals in the study. The concentration of the drug in the plasma of mice injected intravenously or administrated orally with the test compound was quantified at different time points by using a LC/MS/MS method to evaluate the pharmacokinetic characteristics of the test drug in mice.
A clear solution of the test compound was injected into C57BL/6 mice (overnight-fasted, 7-10 weeks old) via the tail vein, and the test compound was intragastrically administered to C57BL/6 mice (overnight-fasted, 7-10 weeks old). Approximately 30 μL of blood was collected from each animal via the jugular vein or tail vein at 0.0833, 0.25, 0.5, 1, 2, 4, 6, 8 and 24 hours after administration, and placed in an anticoagulant tube supplemented with EDTA-K2. Centrifuged at 3000 g at 4° C. for 15 min, and the plasma was collected. The plasma concentration was determined by LC-MS/MS. The pharmacokinetic parameters were calculated by using the non-compartment model and linear logarithmic trapezoidal method using the pharmacokinetic software WinNonlin™ Version 6.3 (Pharsight, Mountain View, Calif.).

Sequence of ASK1/MAP3K5 (Q99683 whole entry): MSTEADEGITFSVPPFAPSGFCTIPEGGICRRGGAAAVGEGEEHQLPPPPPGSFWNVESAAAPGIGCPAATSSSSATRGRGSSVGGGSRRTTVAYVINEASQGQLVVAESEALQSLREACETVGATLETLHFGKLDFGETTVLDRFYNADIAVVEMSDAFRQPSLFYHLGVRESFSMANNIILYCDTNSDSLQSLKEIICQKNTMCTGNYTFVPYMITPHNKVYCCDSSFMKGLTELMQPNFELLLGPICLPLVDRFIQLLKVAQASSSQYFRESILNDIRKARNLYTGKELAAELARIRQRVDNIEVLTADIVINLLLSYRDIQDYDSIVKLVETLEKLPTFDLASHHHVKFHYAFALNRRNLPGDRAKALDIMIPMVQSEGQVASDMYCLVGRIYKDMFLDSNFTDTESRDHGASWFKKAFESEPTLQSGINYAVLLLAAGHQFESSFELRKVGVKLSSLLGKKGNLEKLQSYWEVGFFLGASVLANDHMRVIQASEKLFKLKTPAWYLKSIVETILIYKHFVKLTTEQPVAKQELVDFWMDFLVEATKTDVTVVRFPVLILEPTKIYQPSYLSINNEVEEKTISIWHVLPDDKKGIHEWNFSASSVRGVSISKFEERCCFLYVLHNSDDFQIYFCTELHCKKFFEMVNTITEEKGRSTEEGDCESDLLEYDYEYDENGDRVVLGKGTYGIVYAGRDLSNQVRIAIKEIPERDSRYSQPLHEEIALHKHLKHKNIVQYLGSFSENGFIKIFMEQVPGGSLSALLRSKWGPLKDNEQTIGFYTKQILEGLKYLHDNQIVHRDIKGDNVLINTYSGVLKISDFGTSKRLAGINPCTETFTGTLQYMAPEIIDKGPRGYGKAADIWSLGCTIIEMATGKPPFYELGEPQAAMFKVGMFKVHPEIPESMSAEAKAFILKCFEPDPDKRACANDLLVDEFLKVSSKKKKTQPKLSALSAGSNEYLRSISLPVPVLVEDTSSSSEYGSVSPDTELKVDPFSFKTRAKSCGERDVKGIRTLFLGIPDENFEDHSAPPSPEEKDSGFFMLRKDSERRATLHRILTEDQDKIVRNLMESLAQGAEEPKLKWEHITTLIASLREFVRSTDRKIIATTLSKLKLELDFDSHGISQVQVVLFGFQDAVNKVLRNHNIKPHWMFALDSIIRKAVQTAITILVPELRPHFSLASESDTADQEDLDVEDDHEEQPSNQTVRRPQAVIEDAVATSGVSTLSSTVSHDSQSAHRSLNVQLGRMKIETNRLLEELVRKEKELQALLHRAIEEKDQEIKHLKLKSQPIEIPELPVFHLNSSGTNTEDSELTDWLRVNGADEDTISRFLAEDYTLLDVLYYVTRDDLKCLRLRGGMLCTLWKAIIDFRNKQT

IC50 (ASK1/MAP3K5) | Exposure [1] | bioavailability [1] | SMILES
≤ 50 nM |  |  | Cc1cc2ncn(-c3csc(-c4nncn4C(C)C)n3)c(=O)c2cc1-n1cnc(C2CC2)c1 [Example 046]
≤ 50 nM | 103.95 µM·h | 98.5% | Cc1cc2c(cc1-n1cnc(C3CC3)c1)C(=O)N(c1cccc(-c3nnc4n3CCC4)n1)CC2 [Example 008]
≤ 50 nM |  |  | CC(C)n1cnnc1-c1cccc(-n2cnc3cc(N(C)C)c(-n4cnc(C5CC5)c4)cc3c2=O)n1 [Example 055]
≤ 50 nM |  |  | COCCOc1cc2ncn(-c3cccc(-c4nncn4C(C)C)n3)c(=O)c2cc1-n1cnc(C2CC2)c1 [Example 035]
> 1000 nM |  |  | Cc1nc(C2CC2)cn1-c1ccc2c(c1)C(=O)N(c1cccc(-c3nnc4n3CCCC4)n1)CC2 [Example 012]
≤ 50 nM | 66.259 µM·h | 214% | CC(C)n1cnnc1-c1cccc(-n2cc(F)c3ccc(-n4cnc(C5CC5)c4)cc3c2=O)n1 [Example 003]
≤ 50 nM |  |  | CNC(=O)COc1cc2ncn(-c3cccc(-c4nncn4C(C)C)n3)c(=O)c2cc1-n1cnc(C2CC2)c1 [Example 039]
≤ 50 nM |  |  | CCC(CC)n1cnnc1-c1cccc(-n2cnc3cc(C)c(-n4cnc(C5CC5)c4)cc3c2=O)n1 [Example 045]
≤ 50 nM | 31.832 µM·h | 108% | Cc1cc2ncn(-c3cccc(-c4nncn4C(C)C)n3)c(=O)c2cc1-n1cnc(C2CC2)c1 [Example 011]
≤ 50 nM |  |  | CCc1cc2ncn(-c3cccc(-c4nncn4C(C)C)n3)c(=O)c2cc1-n1cnc(C2CC2)c1 [Example 022]
≤ 50 nM |  |  | CC(C)n1cnnc1-c1cccc(-n2cnc3ccc(-n4cnc(C5CC5)c4)cc3c2=O)n1 [Example 013]
≤ 50 nM |  |  | COc1cc2ncn(-c3cccc(-c4nncn4C(C)C)n3)c(=O)c2cc1-n1cnc(C2CC2)c1 [Example 031]
≤ 50 nM |  |  | CC(C)n1cnnc1-c1cccc(-n2cnc3cc(Cl)c(-n4cnc(C5CC5)c4)cc3c2=O)n1 [Example 021]
≤ 50 nM |  |  | CC(C)n1cnnc1-c1cccc(-n2cnc3cc(OCC(N)=O)c(-n4cnc(C5CC5)c4)cc3c2=O)n1 [Example 038]
≤ 50 nM |  |  | Cc1cc2ncn(-c3cccc(-c4nncn4C(C)CO)n3)c(=O)c2cc1-n1cnc(C2CC2)c1 (centres unmarked) [Example 057]
50 to 1000 nM |  |  | Cc1cc2ncn(-c3cccc(-c4nncn4C4CCOCC4)n3)c(=O)c2cc1-n1cnc(C2CC2)c1 [Example 048]
≤ 50 nM |  |  | CC(C)n1cnnc1-c1cccc(-n2cnc3cc(OCCO)c(-n4cnc(C5CC5)c4)cc3c2=O)n1 [Example 041]
≤ 50 nM |  |  | Cc1ccc(-c2cc3ncn(-c4cccc(-c5nncn5C(C)C)n4)c(=O)c3cc2-n2cnc(C3CC3)c2)cn1 [Example 032]
≤ 50 nM |  |  | Cc1cc2ccn(-c3cccc(-c4nncn4C(C)C)n3)c(=O)c2cc1-n1cnc(C2CC2)c1 [Example 006]
≤ 50 nM |  |  | CC(C)n1cnnc1-c1cccc(-n2cnc3cc(OCCCF)c(-n4cnc(C5CC5)c4)cc3c2=O)n1 [Example 054]
50 to 1000 nM |  |  | O=C1c2cc(-n3cnc4c3CCCC4)ccc2CCN1c1cccc(-c2nnc3n2CCCC3)n1 [Example 010]
50 to 1000 nM |  |  | Cc1cc2ncn(-c3cccc(-c4nnc(C)n4C(C)C)n3)c(=O)c2cc1-n1cnc(C2CC2)c1 [Example 016]
> 1000 nM |  |  | Cc1cc2ncn(-c3csc(-c4nncn4C(C)C)c3)c(=O)c2cc1-n1cnc(C2CC2)c1 [Example 042]
≤ 50 nM |  |  | CC(C)n1cnnc1-c1cccc(-n2ccc3ccc(-n4cnc(C5CC5)c4)cc3c2=O)n1 [Example 004]
≤ 50 nM | 20.356 µM·h | 148% | COc1ccc(-c2cc3ncn(-c4cccc(-c5nncn5C(C)C)n4)c(=O)c3cc2-n2cnc(C3CC3)c2)cn1 [Example 033]
50 to 1000 nM |  |  | Cc1cc2ncn(-c3cccc(-c4nnc5n4CCC5)n3)c(=O)c2cc1-n1cnc(C2CC2)c1 [Example 028]
≤ 50 nM |  |  | CC(C)n1cnnc1-c1cccc(-n2cnc3cc(-c4ccc(N)nc4)c(-n4cnc(C5CC5)c4)cc3c2=O)n1 [Example 034]

IC50 (ASK1/MAP3K5) | Exposure [1] | bioavailability [1] | SMILES
≤ 50 nM |  |  | CC(C)n1cnnc1-c1cccc(-n2cnc3cc(OCC4COC4)c(-n4cnc(C5CC5)c4)cc3c2=O)n1 [Example 058]
≤ 50 nM |  |  | CC(C)n1cnnc1-c1cccc(-n2cnc3cc(-c4ccsc4)c(-n4cnc(C5CC5)c4)cc3c2=O)n1 [Example 025]
≤ 50 nM | 89.099 µM·h | 115% | Cc1cc2c(cc1-n1cnc(C3CC3)c1)C(=O)N(c1cccc(-c3nnc4n3CCCC4)n1)CC2 [Example 009]
≤ 50 nM |  |  | CC(C)n1cnnc1-c1cccc(N2Cc3ccc(-n4cnc(C5CC5)c4)cc3C2=O)n1 [Example 005]
> 1000 nM |  |  | Cc1cc2ncn(-c3cccc(-c4nnc(C)n4C)n3)c(=O)c2cc1-n1cnc(C2CC2)c1 [Example 015]
≤ 50 nM |  |  | Cc1cc2ncn(-c3cccc(-c4nncn4CC(F)(F)F)n3)c(=O)c2cc1-n1cnc(C2CC2)c1 [Example 019]
≤ 50 nM |  |  | Cc1cc2ncn(-c3cccc(-c4nncn4C(C)(C)C)n3)c(=O)c2cc1-n1cnc(C2CC2)c1 [Example 047]
≤ 50 nM |  |  | CC(C)n1cnnc1-c1cccc(-n2cnc3cc(-c4ccccc4)c(-n4cnc(C5CC5)c4)cc3c2=O)n1 [Example 023]
> 1000 nM |  |  | Cc1nnc(-c2cccc(-n3cnc4cc(C)c(-n5cnc(C6CC6)c5)cc4c3=O)n2)o1 [Example 020]
≤ 50 nM |  |  | Cc1cc2ncn(-c3cccc(-c4nncn4C(C)C)n3)c(=O)c2cc1-n1cnc(-c2ccccc2)c1 [Example 050]
≤ 50 nM |  |  | CC(C)n1cnnc1-c1cccc(-n2cnc3cc(-c4cccnc4)c(-n4cnc(C5CC5)c4)cc3c2=O)n1 [Example 024]
≤ 50 nM |  |  | Cc1cc2ncn(-c3cccc(-c4nncn4C4CCCC4)n3)c(=O)c2cc1-n1cnc(C2CC2)c1 [Example 044]
≤ 50 nM | 59.568 µM·h | 111% | Cc1cc2ncn(-c3cccc(-c4nncn4C4CC4)n3)c(=O)c2cc1-n1cnc(C2CC2)c1 [Example 018]
50 to 1000 nM |  |  | Cc1cc2ncn(-c3cccc(-c4nnc5n4CCCC5)n3)c(=O)c2cc1-n1cnc(C2CC2)c1 [Example 014]
> 1000 nM |  |  | COc1nc2cc(C)c(-n3cnc(C4CC4)c3)cc2c(=O)n1-c1cccc(-c2nncn2C(C)C)n1 [Example 029]
≤ 50 nM |  |  | CC(C)n1cnnc1-c1cccc(-n2cnc3cc(OCCCS(C)(=O)=O)c(-n4cnc(C5CC5)c4)cc3c2=O)n1 [Example 040]
> 1000 nM |  |  | Cc1cc2ncn(-c3cccc(-c4nncn4C(C)C)c3)c(=O)c2cc1-n1cnc(C2CC2)c1 [Example 043]
≤ 50 nM |  |  | CC(C)n1cnnc1-c1cccc(-n2cnc3cc(N4CCOCC4)c(-n4cnc(C5CC5)c4)cc3c2=O)n1 [Example 056]
≤ 50 nM |  |  | Cc1cc2ncn(-c3cccc(-c4nncn4C4CCCCC4)n3)c(=O)c2cc1-n1cnc(C2CC2)c1 [Example 051]
≤ 50 nM |  |  | CC(C)n1cnnc1-c1cccc(-n2cnc3cc(O)c(-n4cnc(C5CC5)c4)cc3c2=O)n1 [Example 037]
≤ 50 nM |  |  | Cc1cc2ncn(-c3cccc(-c4nncn4C(C)C)n3)c(=O)c2cc1-c1ccc(C(C)C)nc1 [Example 052]
50 to 1000 nM |  |  | Cc1cc2ncn(-c3cccc(-c4nncn4C4CCC(F)(F)CC4)n3)c(=O)c2cc1-n1cnc(C2CC2)c1 [Example 049]
≤ 50 nM | 69.652 µM·h | 133% | CC(C)n1cnnc1-c1cccc(N2CCc3ccc(-n4cnc(C5CC5)c4)cc3C2=O)n1 [Example 001]
≤ 50 nM | 29.007 µM·h | 123% | Cc1cc2c(F)cn(-c3cccc(-c4nncn4C(C)C)n3)c(=O)c2cc1-n1cnc(C2CC2)c1 [Example 007]
≤ 50 nM | 29.277 µM·h | 92% | Cc1cc2c(cc1-n1cnc(C3CC3)c1)C(=O)N(c1cccc(-c3nncn3C(C)C)n1)CC2 [Example 002]
50 to 1000 nM |  |  | Cc1cc2c(F)cn(-c3cccc(-c4nnc5n4CCCC5)n3)c(=O)c2cc1-n1cnc(C2CC2)c1 [Example 017]
